Experimental data taken from PubChem BioAssay AID1963967 (Molecular Pharmacology Branch, DTP, NCI, 2024).

Tested on: 855422-203-R-J1-PDC spheroids with HUVEC/MSC, viability
Experiment: Anticancer human tumor 855422-203-R-J1-PDC patient-derived bladder carcinoma cell line growth inhibition [PI3K]
Details: for IC50: curve of first compound; for viability, T/C: stronger effect = lower value; active = viability on the fitted dose curve at most 10% of control; inactive = the rest
Summary of the method: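 Multi-cell spheroids combine tumor cells with HUVEC and human MSCs, treated with targeted agents alone or with inavolisib, alpelisib, duvelisib or copanlisib. Concentrations fall in half-log steps from at or near clinical Cmax, or from 10 microM where Cmax is unknown; viability read-out.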
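Also: agents incubated with spheroids for one week before read-out.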
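For viability, T/C in this document: 100% = DMSO vehicle-treated control wells.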

Cn1cnc2c(F)c(Nc3ccc(Br)cc3Cl)c(C(=O)NOCCO)cc21 + Cc1nc(NC(=O)N2CCCC2C(N)=O)sc1-c1ccnc(C(C)(C)C(F)(F)F)c1
< 9.49 nM: IC50 (second compound 3.16 µM) | IC50 (second compound 10 µM)
2580 nM: IC50 (second compound 0.1 µM)
111 nM: IC50 (second compound 1 µM)
2250 nM: IC50 (second compound 0.0316 µM)
1350 nM: IC50 (second compound 0.316 µM)
active: viability, T/C (second compound 3.16 µM, first compound 3 µM) 6% | viability, T/C (second compound 10 µM, first compound 0.3 µM) 8.91% | viability, T/C (second compound 10 µM, first compound 0.949 µM) 5.5% | viability, T/C (second compound 10 µM, first compound 3 µM) 1.88%
inactive: viability, T/C (second compound 0.0316 µM, first compound 0.00949 µM) 94% | viability, T/C (second compound 0.0316 µM, first compound 0.03 µM) 79.5% | viability, T/C (second compound 0.0316 µM, first compound 0.0949 µM) 116% | viability, T/C (second compound 0.0316 µM, first compound 0.3 µM) 90.4% | viability, T/C (second compound 0.0316 µM, first compound 0.949 µM) 82.1% | viability, T/C (second compound 0.0316 µM, first compound 3 µM) 39.2% | viability, T/C (second compound 0.1 µM, first compound 0.00949 µM) 96.6% | viability, T/C (second compound 0.1 µM, first compound 0.03 µM) 92.9% | viability, T/C (second compound 0.1 µM, first compound 0.0949 µM) 89.8% | viability, T/C (second compound 0.1 µM, first compound 0.3 µM) 82.1% | viability, T/C (second compound 0.1 µM, first compound 0.949 µM) 79.4% | viability, T/C (second compound 0.1 µM, first compound 3 µM) 45.1% | viability, T/C (second compound 0.316 µM, first compound 0.00949 µM) 85.9% | viability, T/C (second compound 0.316 µM, first compound 0.03 µM) 78% | viability, T/C (second compound 0.316 µM, first compound 0.0949 µM) 89.9% | viability, T/C (second compound 0.316 µM, first compound 0.3 µM) 75.7% | viability, T/C (second compound 0.316 µM, first compound 0.949 µM) 61.6% | viability, T/C (second compound 0.316 µM, first compound 3 µM) 25% | viability, T/C (second compound 1 µM, first compound 0.00949 µM) 53.1% | viability, T/C (second compound 1 µM, first compound 0.03 µM) 59.4% | viability, T/C (second compound 1 µM, first compound 0.0949 µM) 45.1% | viability, T/C (second compound 1 µM, first compound 0.3 µM) 44.3% | viability, T/C (second compound 1 µM, first compound 0.949 µM) 36.2% | viability, T/C (second compound 1 µM, first compound 3 µM) 10.2% | viability, T/C (second compound 3.16 µM, first compound 0.00949 µM) 33.7% | viability, T/C (second compound 3.16 µM, first compound 0.03 µM) 32.9% | viability, T/C (second compound 3.16 µM, first compound 0.0949 µM) 21.7% | viability, T/C (second compound 3.16 µM, first compound 0.3 µM) 21.2% | viability, T/C (second compound 3.16 µM, first compound 0.949 µM) 16% | viability, T/C (second compound 10 µM, first compound 0.00949 µM) 22.9% | viability, T/C (second compound 10 µM, first compound 0.03 µM) 11.8% | viability, T/C (second compound 10 µM, first compound 0.0949 µM) 12.7%
